pIC50: −log10 of the molar value. Activity calls are given as the source filed them. No cut-off for these calls is given here.
What was measured:
[1] = target: T1, Protein cereblon/Receptor-type tyrosine-protein kinase FLT3 (Homo sapiens, UniProt P36888+Q96SW2); assay: PROTAC activity at CRBN/FLT3 in human MV4-11 cells harboring FLT3-ITD mutation assessed as induction of FLT3 degradation incubated for 24 hrs by immunoblotting analysis; type: cell-based
[2] = target: T1, Protein cereblon/Receptor-type tyrosine-protein kinase FLT3; assay: PROTAC activity at CRBN/FLT3 in human MV4-11 cells harboring FLT3-ITD mutation assessed as induction of FLT3 degradation by measuring maximal efficacy incubated for 24 hrs by immunoblotting analysis relative to control; type: cell-based
Target sequence in this assay (P36888 27-993 limits assumed): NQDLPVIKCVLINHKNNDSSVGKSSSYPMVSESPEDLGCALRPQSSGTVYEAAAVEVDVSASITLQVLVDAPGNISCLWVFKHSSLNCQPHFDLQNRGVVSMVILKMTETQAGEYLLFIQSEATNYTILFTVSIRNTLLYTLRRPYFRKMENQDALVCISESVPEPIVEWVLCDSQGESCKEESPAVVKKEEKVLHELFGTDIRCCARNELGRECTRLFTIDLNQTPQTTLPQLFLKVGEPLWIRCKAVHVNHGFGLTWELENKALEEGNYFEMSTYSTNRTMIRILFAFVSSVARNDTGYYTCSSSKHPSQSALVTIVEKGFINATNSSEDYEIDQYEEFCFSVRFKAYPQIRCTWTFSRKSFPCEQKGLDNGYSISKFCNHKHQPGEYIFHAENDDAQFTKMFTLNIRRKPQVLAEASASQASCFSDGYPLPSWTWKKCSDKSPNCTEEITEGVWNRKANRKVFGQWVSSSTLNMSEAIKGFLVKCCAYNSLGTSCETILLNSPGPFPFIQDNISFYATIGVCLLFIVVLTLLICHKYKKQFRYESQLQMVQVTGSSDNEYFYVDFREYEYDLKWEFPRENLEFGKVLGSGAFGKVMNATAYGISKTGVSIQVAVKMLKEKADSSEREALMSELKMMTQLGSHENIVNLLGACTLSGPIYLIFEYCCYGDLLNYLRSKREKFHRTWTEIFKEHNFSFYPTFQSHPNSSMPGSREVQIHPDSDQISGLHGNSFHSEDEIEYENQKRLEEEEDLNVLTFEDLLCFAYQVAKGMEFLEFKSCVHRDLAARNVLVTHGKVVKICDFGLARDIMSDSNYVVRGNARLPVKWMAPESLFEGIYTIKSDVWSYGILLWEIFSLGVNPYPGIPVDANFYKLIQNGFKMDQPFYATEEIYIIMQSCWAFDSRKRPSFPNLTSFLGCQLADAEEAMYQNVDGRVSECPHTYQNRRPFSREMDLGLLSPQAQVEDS
Target sequence in this assay (Q96SW2 whole entry partner): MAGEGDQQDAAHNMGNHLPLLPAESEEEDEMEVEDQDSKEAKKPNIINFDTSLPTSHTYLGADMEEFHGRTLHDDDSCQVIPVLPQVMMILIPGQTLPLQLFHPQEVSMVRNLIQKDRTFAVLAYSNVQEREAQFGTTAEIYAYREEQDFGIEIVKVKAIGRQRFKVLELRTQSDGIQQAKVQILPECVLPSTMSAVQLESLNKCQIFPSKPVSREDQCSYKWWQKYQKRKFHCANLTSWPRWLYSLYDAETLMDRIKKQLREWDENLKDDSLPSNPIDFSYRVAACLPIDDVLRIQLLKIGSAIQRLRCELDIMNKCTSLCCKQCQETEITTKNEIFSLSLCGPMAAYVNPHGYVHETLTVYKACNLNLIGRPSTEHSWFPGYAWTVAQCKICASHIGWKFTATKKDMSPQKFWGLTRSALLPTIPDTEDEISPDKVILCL

[3] = target: T1, Protein cereblon/Receptor-type tyrosine-protein kinase FLT3; assay: PROTAC activity at CRBN/FLT3 in human MV4-11 cells harboring FLT3-ITD mutation assessed as induction of FLT3 degradation at 1 nM incubated for 2 to 20 hrs by Immunoblotting analysis; type: cell-based; settings: time 2-20 hrs
Target sequence in this assay (P36888 27-993 limits assumed): as the sequence (P36888 27-993 limits assumed) above
Target sequence in this assay (Q96SW2 whole entry partner): as the sequence (Q96SW2 whole entry partner) above

[4] = target: Tyrosine-protein kinase receptor UFO (Homo sapiens) (UniProt P30530); assay: Induction of AXL degradation in human MDA-MB-231 cells at 1 to 10 nM measured upto 20 hrs by immunoblotting analysis; type: cell-based; settings: dose 1-10 nM
[5] = target: ALK tyrosine kinase receptor (Homo sapiens) (UniProt Q9UM73); assay: Induction of ALK degradation in human Raji cells at 1 to 10 nM measured upto 24 hrs by immunoblotting analysis; type: cell-based; settings: dose 1-10 nM
[6] = target: Leukocyte tyrosine kinase receptor (Homo sapiens) (UniProt P29376); assay: Induction of LTK degradation in human Raji cells at 1 to 10 nM measured upto 24 hrs by immunoblotting analysis; type: cell-based; settings: dose 1-10 nM
[7] = target: T1, Protein cereblon/Receptor-type tyrosine-protein kinase FLT3; assay: PROTAC activity at CRBN/FLT3 in human MV4-11 cells harboring FLT3 ITD mutation assessed as induction of FLT3 degradation at 1 nM incubated for 6 hrs in presence of lenalidomide by Immunoblotting analysis; type: cell-based
Target sequence in this assay (P36888 27-993 limits assumed): as the sequence (P36888 27-993 limits assumed) above
Target sequence in this assay (Q96SW2 whole entry partner): as the sequence (Q96SW2 whole entry partner) above

[8] = target: T1, Protein cereblon/Receptor-type tyrosine-protein kinase FLT3; assay: PROTAC activity at CRBN/FLT3 in human MV4-11 cells harboring FLT3 ITD mutation assessed as induction of FLT3 degradation at 1 nM incubated for 6 hrs in presence of gilteritinib by immunoblotting analysis; type: cell-based
Target sequence in this assay (P36888 27-993 limits assumed): as the sequence (P36888 27-993 limits assumed) above
Target sequence in this assay (Q96SW2 whole entry partner): as the sequence (Q96SW2 whole entry partner) above

[9] = target: T1, Protein cereblon/Receptor-type tyrosine-protein kinase FLT3; assay: PROTAC activity at CRBN/FLT3 in human MV4-11 cells harboring FLT3 ITD mutation assessed as induction of FLT3 degradation at 1 nM incubated for 6 hrs in presence of MLN4924 by immunoblotting analysis; type: cell-based
Target sequence in this assay (P36888 27-993 limits assumed): as the sequence (P36888 27-993 limits assumed) above
Target sequence in this assay (Q96SW2 whole entry partner): as the sequence (Q96SW2 whole entry partner) above

[10] = target: T1, Protein cereblon/Receptor-type tyrosine-protein kinase FLT3; assay: PROTAC activity at CRBN/FLT3 in human MV4-11 cells harboring FLT3 ITD mutation assessed as induction of FLT3 degradation at 1 nM incubated for 6 hrs in presence of MG132 by immunoblotting analysis; type: cell-based
Target sequence in this assay (P36888 27-993 limits assumed): as the sequence (P36888 27-993 limits assumed) above
Target sequence in this assay (Q96SW2 whole entry partner): as the sequence (Q96SW2 whole entry partner) above

[11] = target: T1, Protein cereblon/Receptor-type tyrosine-protein kinase FLT3; assay: PROTAC activity at CRBN/FLT3 in human MV4-11 cells harboring FLT3 ITD mutation assessed as induction of FLT3 degradation at 1 nM incubated for 6 hrs in presence of bafilomycin by immunoblotting analysis; type: cell-based
[12] = target: T1, Protein cereblon/Receptor-type tyrosine-protein kinase FLT3; assay: PROTAC activity at CRBN/FLT3 in human MV4-11 cells harboring FLT3 ITD mutation assessed as induction of FLT3 degradation at 1 nM measured upto 12 hrs in presence of cycloheximide by immunoblotting analysis; type: cell-based
[13] = tested on: MV4-11; assay: Antiproliferative activity against human MV4-11 cells assessed as inhibition of cell proliferation incubated for 72 hrs by CCK8 assay; type: functional, cell-based; settings: MV4-11, 72 h
[14] = tested on: MV4-11; assay: Potency index, ratio of gilteritinib IC50 to test compound IC50 for antiproliferative activity against human MV4-11 cells assessed as inhibition of cell proliferation incubated for 72 hrs by CCK8 assay; type: functional
[15] = tested on: MV4-11; assay: Induction of apoptosis in human MV4-11 cells incubated for 48 hrs by Annexin V/7-AAD staining based flow cytometric analysis; type: functional, cell-based; settings: dose 0.016-10 nM
[16] = tested on: MV4-11; assay: Induction of apoptosis in human MV4-11 cells assessed as early apoptotic cells at 2 nM incubated for 48 hrs by Annexin V/7-AAD staining based flow cytometric analysis relative to control; type: functional
[17] = tested on: MV4-11; assay: Induction of apoptosis in human MV4-11 cells assessed as late apoptotic cells at 2 nM incubated for 48 hrs by Annexin V/7-AAD staining based flow cytometric analysis relative to control; type: functional
[18] = tested on: MV4-11; assay: Induction of apoptosis in human MV4-11 cells assessed as early apoptotic cells at 10 nM incubated for 48 hrs by Annexin V/7-AAD staining based flow cytometric analysis relative to control; type: functional
[19] = tested on: MV4-11; assay: Induction of apoptosis in human MV4-11 cells assessed as late apoptotic cells at 10 nM incubated for 48 hrs by Annexin V/7-AAD staining based flow cytometric analysis relative to control; type: functional
[20] = tested on: MV4-11; assay: Induction of apoptosis in human MV4-11 cells assessed as necrotic cells at 10 nM incubated for 48 hrs by Annexin V/7-AAD staining based flow cytometric analysis relative to control; type: functional
[21] = tested on: MV4-11; assay: Induction of apoptosis in human MV4-11 cells assessed as increase in cleaved PARP level at 2 to 10 nM incubated for 48 hrs by immunoblotting analysis; type: functional, cell-based; settings: dose 2-10 nM
[22] = tested on: MV4-11; assay: Induction of apoptosis in human MV4-11 cells assessed as increase in cleaved caspase 3 level at 2 to 10 nM incubated for 48 hrs by immunoblotting analysis; type: functional, cell-based; settings: dose 2-10 nM
[23] = tested on: MV4-11; assay: Induction of cell cycle arrest at G0/G1 phase in human MV4-11 cells assessed as sub-G0/G1 phase cells at 0.4 nM incubated for 24 hrs by PI staining based flow cytometric analysis relative to control; type: functional
[24] = tested on: MV4-11; assay: Induction of cell cycle arrest at G0/G1 phase in human MV4-11 cells assessed as G0/G1 phase cells at 0.4 nM incubated for 24 hrs by PI staining based flow cytometric analysis relative to control; type: functional
[25] = tested on: MV4-11; assay: Induction of cell cycle arrest at G0/G1 phase in human MV4-11 cells assessed as S phase cells at 0.4 nM incubated for 24 hrs by PI staining based flow cytometric analysis relative to control; type: functional
[26] = tested on: MV4-11; assay: Induction of cell cycle arrest at G0/G1 phase in human MV4-11 cells assessed as G2/M phase cells at 0.4 nM incubated for 24 hrs by PI staining based flow cytometric analysis relative to control; type: functional
[27] = tested on: MV4-11; assay: Induction of cell cycle arrest at G0/G1 phase in human MV4-11 cells assessed as sub-G0/G1 phase cells at 2 nM incubated for 24 hrs by PI staining based flow cytometric analysis relative to control; type: functional
[28] = tested on: MV4-11; assay: Induction of cell cycle arrest at G0/G1 phase in human MV4-11 cells assessed as G0/G1 phase cells at 2 nM incubated for 24 hrs by PI staining based flow cytometric analysis relative to control; type: functional
[29] = tested on: MV4-11; assay: Induction of cell cycle arrest at G0/G1 phase in human MV4-11 cells assessed as S phase cells at 2 nM incubated for 24 hrs by PI staining based flow cytometric analysis relative to control; type: functional
[30] = tested on: MV4-11; assay: Induction of cell cycle arrest at G0/G1 phase in human MV4-11 cells assessed as G2/M phase cells at 2 nM incubated for 24 hrs by PI staining based flow cytometric analysis relative to control; type: functional
[31] = tested on: MV4-11; assay: Inhibition of PI3K/AKT signaling pathway in human MV4-11 cells assessed as reduction in AKT phosphorylation incubated for 24 hrs by immunoblotting analysis; type: cell-based; settings: dose 0.08-50 nM
[32] = target: T1, Protein cereblon/Receptor-type tyrosine-protein kinase FLT3; assay: PROTAC activity at CRBN/FLT3 in human MV4-11 cells harboring FLT3-ITD mutation assessed as reduction in FLT3 phosphorylation incubated for 24 hrs by immunoblotting analysis; type: cell-based; settings: dose 0.08-50 nM
[33] = tested on: MV4-11; assay: Inhibition of JAK/STAT5 signaling pathway in human MV4-11 cells assessed as reduction in STAT5 phosphorylation incubated for 24 hrs by immunoblotting analysis; type: cell-based; settings: dose 0.08-50 nM
[34] = tested on: MV4-11; assay: Inhibition of ERK phosphorylation in human MV4-11 cells incubated for 24 hrs by immunoblotting analysis; type: cell-based; settings: dose 0.08-50 nM
[35] = tested on: MV4-11; assay: Antitumor activity against human MV4-11 cells xenografted in NOD/SCID mouse assessed as reduction in tumor volume at 6 mg/kg, ip administered once a day for 21 days; type: functional, organism-based; settings: time 21.0 day
[36] = Toxicity in NOD/SCID mouse xenografted with human MV4-11 cells assessed as weight loss at 6 mg/kg, ip administered once daily for 21 days; type: organism-based; settings: in vivo, 504 h, time 21 day

Chain of Tyrosine-protein kinase receptor UFO (Homo sapiens) (P30530 whole entry): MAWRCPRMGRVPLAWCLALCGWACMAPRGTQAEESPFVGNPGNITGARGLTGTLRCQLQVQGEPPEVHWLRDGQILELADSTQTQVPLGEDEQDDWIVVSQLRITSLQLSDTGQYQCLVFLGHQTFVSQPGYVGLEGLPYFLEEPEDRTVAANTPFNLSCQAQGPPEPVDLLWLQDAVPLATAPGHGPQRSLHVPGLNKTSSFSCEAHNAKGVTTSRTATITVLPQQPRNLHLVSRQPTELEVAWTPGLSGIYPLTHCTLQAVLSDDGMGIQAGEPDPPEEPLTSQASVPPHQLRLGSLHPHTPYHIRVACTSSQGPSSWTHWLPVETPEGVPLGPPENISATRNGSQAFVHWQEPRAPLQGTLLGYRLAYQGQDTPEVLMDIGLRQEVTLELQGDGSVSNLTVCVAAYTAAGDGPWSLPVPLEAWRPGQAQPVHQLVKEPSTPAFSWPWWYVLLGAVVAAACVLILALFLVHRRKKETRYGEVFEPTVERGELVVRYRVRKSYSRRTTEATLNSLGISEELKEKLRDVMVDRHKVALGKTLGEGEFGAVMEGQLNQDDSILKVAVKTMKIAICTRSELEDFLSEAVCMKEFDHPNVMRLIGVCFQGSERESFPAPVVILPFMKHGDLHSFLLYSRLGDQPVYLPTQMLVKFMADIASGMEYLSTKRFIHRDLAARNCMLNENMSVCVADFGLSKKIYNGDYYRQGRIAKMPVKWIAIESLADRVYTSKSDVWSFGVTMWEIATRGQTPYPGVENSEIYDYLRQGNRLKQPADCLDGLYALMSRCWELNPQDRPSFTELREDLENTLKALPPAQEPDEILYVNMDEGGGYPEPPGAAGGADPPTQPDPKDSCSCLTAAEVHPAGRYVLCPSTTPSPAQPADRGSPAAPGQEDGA
Chain of Leukocyte tyrosine kinase receptor (Homo sapiens) (P29376 whole entry): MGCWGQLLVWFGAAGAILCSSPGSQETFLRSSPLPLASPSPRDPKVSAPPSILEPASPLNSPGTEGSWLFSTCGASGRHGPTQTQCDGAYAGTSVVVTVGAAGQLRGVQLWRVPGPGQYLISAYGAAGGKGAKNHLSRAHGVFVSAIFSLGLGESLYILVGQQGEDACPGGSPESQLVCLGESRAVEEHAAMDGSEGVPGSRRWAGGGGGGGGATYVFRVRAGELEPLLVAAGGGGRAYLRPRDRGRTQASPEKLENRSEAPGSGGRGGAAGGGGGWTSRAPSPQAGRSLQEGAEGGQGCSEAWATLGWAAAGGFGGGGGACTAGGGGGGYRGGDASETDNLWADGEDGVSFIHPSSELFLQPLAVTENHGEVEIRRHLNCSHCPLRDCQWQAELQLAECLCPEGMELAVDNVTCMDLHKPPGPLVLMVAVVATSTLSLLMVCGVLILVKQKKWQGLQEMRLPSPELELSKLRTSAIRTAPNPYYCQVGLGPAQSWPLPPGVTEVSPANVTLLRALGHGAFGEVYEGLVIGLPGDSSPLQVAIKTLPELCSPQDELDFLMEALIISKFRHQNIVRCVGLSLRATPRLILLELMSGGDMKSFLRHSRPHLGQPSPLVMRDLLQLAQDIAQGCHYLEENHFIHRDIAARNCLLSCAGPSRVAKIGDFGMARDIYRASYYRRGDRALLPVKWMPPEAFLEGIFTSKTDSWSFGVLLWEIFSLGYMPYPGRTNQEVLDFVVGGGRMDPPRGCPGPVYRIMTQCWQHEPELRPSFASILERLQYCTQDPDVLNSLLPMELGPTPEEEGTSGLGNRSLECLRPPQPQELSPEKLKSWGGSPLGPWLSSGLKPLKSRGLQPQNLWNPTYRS

Q: Which Activity [1] does the source give for `CCc1nc(C(N)=O)c(Nc2ccc(N3CCC(N4CCN(C(=O)COc5cccc6c5CN(C5CCC(=O)NC5=O)C6=O)CC4)CC3)c(OC)c2)nc1NC1CCOCC1` (configuration not stated) here?
A: Its Activity is “Dose-Dependent Effect”.

Q: What about the DC50 [1] of the same compound?
A: Its DC50 is 0.64 nM.

Q: What about the Emax [2] of the same compound?
A: The Emax was 94.8%.

Q: And the Activity [3]?
A: Its Activity is “Active”.

Q: And the Activity [4]?
A: Its Activity is “inactive”.

Q: What about the Activity [5] of the same compound?
A: The Activity was “inactive”.

Q: What about the Activity [6] of the same compound?
A: Its Activity is “inactive”.

Q: And the Activity [7]?
A: Its Activity is “inactive”.

Q: What about the Activity [8] of the same compound?
A: Its Activity is “inactive”.

Q: And the Activity [9]?
A: The Activity was “inactive”.

Q: And the Activity [10]?
A: The Activity was “inactive”.

Q: And the Activity [11]?
A: Its Activity is “Active”.

Q: What about the Activity [12] of the same compound?
A: Its Activity is “Active”.

Q: And the pIC50 [13]?
A: The pIC50 was 8.82.

Q: And the “Ratio IC50” value [14]?
A: The value was 4.6.

Q: And the Activity [15]?
A: Its Activity is “Dose-Dependent Effect”.

Q: What about the Activity [16] of the same compound?
A: Its Activity is 2.8%.

Q: What about the Activity [17] of the same compound?
A: Its Activity is 24.8%.

Q: What about the Activity [18] of the same compound?
A: Its Activity is 3.4%.

Q: What about the Activity [19] of the same compound?
A: The Activity was 33.1%.

Q: And the Activity [20]?
A: The Activity was 15.9%.

Q: And the Activity [21]?
A: Its Activity is “Active”.

Q: And the Activity [22]?
A: Its Activity is “Active”.

Q: And the Activity [23]?
A: Its Activity is 2.4%.

Q: What about the Activity [24] of the same compound?
A: Its Activity is 79.8%.

Q: What about the Activity [25] of the same compound?
A: The Activity was 5.6%.

Q: What about the Activity [26] of the same compound?
A: Its Activity is 12.1%.

Q: And the Activity [27]?
A: The Activity was 6.8%.

Q: And the Activity [28]?
A: The Activity was 82.1%.

Q: What about the Activity [29] of the same compound?
A: Its Activity is 2.9%.

Q: And the Activity [30]?
A: Its Activity is 8.1%.

Q: What about the inhibition [31] of the same compound?
A: The inhibition was “Dose-Dependent Effect”.

Q: What about the Activity [32] of the same compound?
A: The Activity was “Active”.

Q: What about the inhibition [33] of the same compound?
A: Its inhibition is “Dose-Dependent Effect”.

Q: What about the inhibition [34] of the same compound?
A: The inhibition was “Dose-Dependent Effect”.

Q: What about the Activity [35] of the same compound?
A: Its Activity is “Active”.

Q: What about the Activity [36] of the same compound?
A: Its Activity is “Non-Toxic”.
